{
  "source": "PubChem BioAssay (NCI)",
  "experiment_in_all_cases": "NCI anticancer screen, dose series, 48 h",
  "key": {"OVCAR-4 ovarian": {"test_system": "OVCAR-4 ovarian"}, "A498 renal": {"test_system": "A498 renal"}, "SF-295 CNS": {"test_system": "SF-295 CNS"}, "SNB-19 CNS": {"test_system": "SNB-19 CNS"}, "HT29 colon": {"test_system": "HT29 colon"}, "SF-539 CNS": {"test_system": "SF-539 CNS"}, "U251 CNS": {"test_system": "U251 CNS"}, "RXF 393 renal": {"test_system": "RXF 393 renal"}, "HCT-15 colon": {"test_system": "HCT-15 colon"}, "M14 melanoma": {"test_system": "M14 melanoma"}, "MALME-3M melanoma": {"test_system": "MALME-3M melanoma"}, "UACC-257 melanoma": {"test_system": "UACC-257 melanoma"}, "ACHN renal": {"test_system": "ACHN renal"}, "MDA-MB-435": {"test_system": "MDA-MB-435"}, "TK-10 renal": {"test_system": "TK-10 renal"}, "UACC-62 melanoma": {"test_system": "UACC-62 melanoma"}, "HCT-116 colon": {"test_system": "HCT-116 colon"}, "SNB-75 CNS": {"test_system": "SNB-75 CNS"}, "OVCAR-8 ovarian": {"test_system": "OVCAR-8 ovarian"}, "NCI-H460 lung": {"test_system": "NCI-H460 lung"}, "CCRF-CEM leukemia": {"test_system": "CCRF-CEM leukemia"}, "EKVX NSCLC": {"test_system": "EKVX NSCLC"}, "A549 NSCLC": {"test_system": "A549 NSCLC"}, "SK-OV-3 ovarian": {"test_system": "SK-OV-3 ovarian"}, "HS 578T breast": {"test_system": "HS 578T breast"}, "RPMI-8226 leukemia": {"test_system": "RPMI-8226 leukemia"}, "BT-549 breast": {"test_system": "BT-549 breast"}, "PC-3 prostate": {"test_system": "PC-3 prostate"}, "SN12C renal": {"test_system": "SN12C renal"}},
  "note": "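Protocol summary: plate cells (96-well), add compound at 5 concentrations, incubate 48 h, interpolate endpoints linearly. At the GI50, growth is halved. TGI: total growth inhibition.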",
  "data": [
    {"smiles": "Cn1cc(-c2nn3cc(-c4ccncc4)nc3s2)c2cc(Cl)ccc21", "values": [
      {"measurement": "GI50", "setting": "OVCAR-4 ovarian", "value": 5.03, "unit": "µM"},
      {"measurement": "TGI", "setting": "OVCAR-4 ovarian", "value": 13.6, "unit": "µM"},
      {"measurement": "GI50", "setting": "A498 renal", "value": 9.38, "unit": "µM"},
      {"measurement": "TGI", "setting": "A498 renal", "value": 23.7, "unit": "µM"},
      {"measurement": "GI50", "setting": "SF-295 CNS", "value": 2.98, "unit": "µM"},
      {"measurement": "TGI", "setting": "SF-295 CNS", "value": 8.52, "unit": "µM"},
      {"measurement": "GI50", "setting": "SNB-19 CNS", "value": 7.98, "unit": "µM"},
      {"measurement": "TGI", "setting": "SNB-19 CNS", "value": 32.7, "unit": "µM"},
      {"measurement": "GI50", "setting": "HT29 colon", "value": 2.41, "unit": "µM"},
      {"measurement": "TGI", "setting": "HT29 colon", "value": 7.31, "unit": "µM"},
      {"measurement": "GI50", "setting": "SF-539 CNS", "value": 4.67, "unit": "µM"},
      {"measurement": "TGI", "setting": "SF-539 CNS", "value": 10.2, "unit": "µM"},
      {"measurement": "GI50", "setting": "U251 CNS", "value": 9.15, "unit": "µM"},
      {"measurement": "TGI", "setting": "U251 CNS", "value": 45.4, "unit": "µM"},
      {"measurement": "GI50", "setting": "RXF 393 renal", "value": 3.37, "unit": "µM"},
      {"measurement": "TGI", "setting": "RXF 393 renal", "value": 9.85, "unit": "µM"},
      {"measurement": "GI50", "setting": "HCT-15 colon", "value": 1.83, "unit": "µM"},
      {"measurement": "TGI", "setting": "HCT-15 colon", "value": 3.78, "unit": "µM"},
      {"measurement": "GI50", "setting": "M14 melanoma", "value": 1.6, "unit": "µM"},
      {"measurement": "TGI", "setting": "M14 melanoma", "value": 3.14, "unit": "µM"},
      {"measurement": "GI50", "setting": "MALME-3M melanoma", "value": 3.16, "unit": "µM"},
      {"measurement": "TGI", "setting": "MALME-3M melanoma", "value": 18.3, "unit": "µM"},
      {"measurement": "GI50", "setting": "UACC-257 melanoma", "value": 8.58, "unit": "µM"},
      {"measurement": "TGI", "setting": "UACC-257 melanoma", "value": 25.2, "unit": "µM"},
      {"measurement": "GI50", "setting": "ACHN renal", "value": 4.78, "unit": "µM"},
      {"measurement": "TGI", "setting": "ACHN renal", "value": 25.3, "unit": "µM"},
      {"measurement": "GI50", "setting": "MDA-MB-435", "value": 2.84, "unit": "µM"},
      {"measurement": "TGI", "setting": "MDA-MB-435", "value": 8.7, "unit": "µM"},
      {"measurement": "GI50", "setting": "TK-10 renal", "value": 14.4, "unit": "µM"},
      {"measurement": "TGI", "setting": "TK-10 renal", "value": 30.9, "unit": "µM"},
      {"measurement": "GI50", "setting": "UACC-62 melanoma", "value": 11.4, "unit": "µM"},
      {"measurement": "TGI", "setting": "UACC-62 melanoma", "value": 31.7, "unit": "µM"},
      {"measurement": "GI50", "setting": "HCT-116 colon", "value": 1.76, "unit": "µM"},
      {"measurement": "TGI", "setting": "HCT-116 colon", "value": 3.3, "unit": "µM"},
      {"measurement": "GI50", "setting": "SNB-75 CNS", "value": 6.42, "unit": "µM"},
      {"measurement": "TGI", "setting": "SNB-75 CNS", "value": 24.2, "unit": "µM"},
      {"measurement": "GI50", "setting": "OVCAR-8 ovarian", "value": 2.36, "unit": "µM"},
      {"measurement": "TGI", "setting": "OVCAR-8 ovarian", "value": 7.7, "unit": "µM"},
      {"measurement": "GI50", "setting": "NCI-H460 lung", "value": 4.6, "unit": "µM"},
      {"measurement": "TGI", "setting": "NCI-H460 lung", "value": 17.5, "unit": "µM"},
      {"measurement": "GI50", "setting": "CCRF-CEM leukemia", "value": 2.06, "unit": "µM"},
      {"measurement": "TGI", "setting": "CCRF-CEM leukemia", "value": 5.4, "unit": "µM"},
      {"measurement": "GI50", "setting": "EKVX NSCLC", "value": 2.3, "unit": "µM"},
      {"measurement": "TGI", "setting": "EKVX NSCLC", "value": 8.54, "unit": "µM"},
      {"measurement": "GI50", "setting": "A549 NSCLC", "value": 11.2, "unit": "µM"},
      {"measurement": "TGI", "setting": "A549 NSCLC", "value": 51.7, "unit": "µM"},
      {"measurement": "GI50", "setting": "SK-OV-3 ovarian", "value": 12.3, "unit": "µM"},
      {"measurement": "TGI", "setting": "SK-OV-3 ovarian", "value": 30.6, "unit": "µM"},
      {"measurement": "GI50", "setting": "HS 578T breast", "value": 4.73, "unit": "µM"},
      {"measurement": "TGI", "setting": "HS 578T breast", "value": 27.2, "unit": "µM"},
      {"measurement": "GI50", "setting": "RPMI-8226 leukemia", "value": 2.24, "unit": "µM"},
      {"measurement": "TGI", "setting": "RPMI-8226 leukemia", "value": 6.24, "unit": "µM"},
      {"measurement": "GI50", "setting": "BT-549 breast", "value": 3.39, "unit": "µM"},
      {"measurement": "TGI", "setting": "BT-549 breast", "value": 13.3, "unit": "µM"},
      {"measurement": "GI50", "setting": "PC-3 prostate", "value": 2.48, "unit": "µM"},
      {"measurement": "TGI", "setting": "PC-3 prostate", "value": 7.82, "unit": "µM"},
      {"measurement": "GI50", "setting": "SN12C renal", "value": 3.72, "unit": "µM"}
    ]}
  ]
}
